{"source": "patent US20260285850A1", "about": "“SUBSTITUTED OXAZOLIDINONES AND IMIDAZOLINONES AS HERBICIDES” (FMC CORPORATION, priority 2023, published 2026)", "type_in_all_cases": "in vivo", "key": {"[1]": {"test_system": "ducksalad (Heteranthera limosa)", "assay": "Test B flooded paddy test, visual plant response rating 0-100", "settings": "250 g ai/ha, Flood, applied to paddy water, evaluated after 13 days", "procedure,_shortened": "(§1)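 In this flooded assay, 2-leaf seedlings received compound through the water layer, kept at 3 cm over the soil. Plants were held 13 days in a greenhouse and then visually compared with control pots.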"}, "[2]": {"test_system": "barnyardgrass (Echinochloa crusgalli)", "assay": "Test B flooded paddy test, visual plant response rating 0-100", "settings": "250 g ai/ha, Flood, applied to paddy water, evaluated after 13 days", "procedure,_shortened": "as §1"}, "[3]": {"test_system": "sedge, umbrella (small-flower umbrella sedge, Cyperus difformis)", "assay": "Test B flooded paddy test, visual plant response rating 0-100", "settings": "250 g ai/ha, Flood, applied to paddy water, evaluated after 13 days", "procedure,_shortened": "as §1"}, "[4]": {"test_system": "rice (Oryza sativa)", "assay": "Test B flooded paddy test, visual plant response rating 0-100", "settings": "250 g ai/ha, Flood, applied to paddy water, evaluated after 13 days", "procedure,_shortened": "as §1"}, "[5]": {"test_system": "corn (Zea mays)", "assay": "Test A postemergence application, visual injury rating 0-100", "procedure,_shortened": "(§2)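 Compound in a non-phytotoxic, surfactant-containing solvent is applied either as a directed soil spray before seedlings emerge or onto emerged plants 2-10 cm tall; pots hold a loam-sand blend. Plants grow 10 days under greenhouse conditions and are rated by eye against untreated controls (0 no effect, 100 complete control).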"}, "[6]": {"test_system": "barnyardgrass (Echinochloa crus-galli)", "assay": "Test A postemergence application, visual injury rating 0-100", "procedure,_shortened": "as §2"}, "[7]": {"test_system": "ragweed (common ragweed, Ambrosia artemisiifolia)", "assay": "Test A postemergence application, visual injury rating 0-100", "procedure,_shortened": "as §2"}, "[8]": {"test_system": "kochia (Bassia scoparia)", "assay": "Test A postemergence application, visual injury rating 0-100", "procedure,_shortened": "as §2"}, "[9]": {"test_system": "wheat (Triticum aestivum)", "assay": "Test A postemergence application, visual injury rating 0-100", "procedure,_shortened": "as §2"}, "[10]": {"test_system": "palmer (palmer amaranth, palmer pigweed, Amaranthus palmeri)", "assay": "Test A postemergence application, visual injury rating 0-100", "procedure,_shortened": "as §2"}, "[11]": {"test_system": "oat, wild (wild oat, Avena fatua)", "assay": "Test A postemergence application, visual injury rating 0-100", "procedure,_shortened": "as §2"}, "[12]": {"test_system": "green foxtail (Setaria viridis)", "assay": "Test A postemergence application, visual injury rating 0-100", "procedure,_shortened": "as §2"}, "[13]": {"test_system": "blackgrass (Alopecurus myosuroides)", "assay": "Test A postemergence application, visual injury rating 0-100", "procedure,_shortened": "as §2"}, "[14]": {"test_system": "horseweed (Erigeron canadensis)", "assay": "Test A postemergence application, visual injury rating 0-100", "procedure,_shortened": "as §2"}, "[15]": {"test_system": "ryegrass, Italian (italian ryegrass, Lolium multiflorum)", "assay": "Test A postemergence application, visual injury rating 0-100", "procedure,_shortened": "as §2"}, "[16]": {"test_system": "soybean (Glycine max)", "assay": "Test A postemergence application, visual injury rating 0-100", "procedure,_shortened": "as §2"}, "[17]": {"test_system": "corn (Zea mays)", "assay": "Test A preemergence soil spray, visual injury rating 0-100", "settings": "10 days", "procedure,_shortened": "as §2"}, "[18]": {"test_system": "barnyardgrass (Echinochloa crus-galli)", "assay": "Test A preemergence soil spray, visual injury rating 0-100", "settings": "10 days", "procedure,_shortened": "as §2"}, "[19]": {"test_system": "ragweed (common ragweed, Ambrosia artemisiifolia)", "assay": "Test A preemergence soil spray, visual injury rating 0-100", "settings": "10 days", "procedure,_shortened": "as §2"}, "[20]": {"test_system": "kochia (Bassia scoparia)", "assay": "Test A preemergence soil spray, visual injury rating 0-100", "settings": "10 days", "procedure,_shortened": "as §2"}, "[21]": {"test_system": "wheat (Triticum aestivum)", "assay": "Test A preemergence soil spray, visual injury rating 0-100", "settings": "10 days", "procedure,_shortened": "as §2"}, "[22]": {"test_system": "palmer (palmer amaranth, palmer pigweed, Amaranthus palmeri)", "assay": "Test A preemergence soil spray, visual injury rating 0-100", "settings": "10 days", "procedure,_shortened": "as §2"}, "[23]": {"test_system": "oat, wild (wild oat, Avena fatua)", "assay": "Test A preemergence soil spray, visual injury rating 0-100", "settings": "10 days", "procedure,_shortened": "as §2"}, "[24]": {"test_system": "green foxtail (Setaria viridis)", "assay": "Test A preemergence soil spray, visual injury rating 0-100", "settings": "10 days", "procedure,_shortened": "as §2"}, "[25]": {"test_system": "blackgrass (Alopecurus myosuroides)", "assay": "Test A preemergence soil spray, visual injury rating 0-100", "settings": "10 days", "procedure,_shortened": "as §2"}, "[26]": {"test_system": "ryegrass, Italian (italian ryegrass, Lolium multiflorum)", "assay": "Test A preemergence soil spray, visual injury rating 0-100", "settings": "10 days", "procedure,_shortened": "as §2"}, "[27]": {"test_system": "soybean (Glycine max)", "assay": "Test A preemergence soil spray, visual injury rating 0-100", "settings": "10 days", "procedure,_shortened": "as §2"}, "[28]": {"settings": "62 g ai/ha, postemergence, 10 days, 0 = no effect, 100 = complete control"}, "[29]": {"settings": "Postemergence, 16 g ai/ha, greenhouse 10 days, 0 no effect, 100 complete control"}, "[30]": {"settings": "62 g ai/ha, 0 = no effect, 100 = complete control"}}, "data": [{"smiles": "CC1(C(=O)NC2C=CC(C(=O)NO)C2)CN(c2cc(F)cc(F)c2)C(=O)O1", "note": "(centres unmarked) [Compound 137]", "values": [{"measurement": "Plant response rating, Ducksalad (0 to 100 scale, 0 is no effect and 100 is complete control)", "setting": "[1]", "value": 0}, {"measurement": "Plant response rating, Barnyardgrass (0 to 100 scale, 0 is no effect and 100 is complete control)", "setting": "[2]", "value": 0}, {"measurement": "Plant response rating, Sedge, Umbrella (0 to 100 scale, 0 is no effect and 100 is complete control)", "setting": "[3]", "value": 0}, {"measurement": "Plant response rating, Rice (0 to 100 scale, 0 is no effect and 100 is complete control)", "setting": "[4]", "value": 0}, {"measurement": "Corn plant response rating (0-100)", "setting": "[5]; [28]", "value": 50}, {"measurement": "Corn plant response rating (0 to 100 scale)", "setting": "[5]; [29]", "value": 10}, {"measurement": "Barnyardgrass plant response rating (0-100)", "setting": "[6]; [28]", "value": 70}, {"measurement": "Barnyardgrass plant response rating (0 to 100 scale)", "setting": "[6]; [29]", "value": 0}, {"measurement": "Ragweed plant response rating (0-100)", "setting": "[7]; [28]", "value": 0}, {"measurement": "Ragweed plant response rating (0 to 100 scale)", "setting": "[7]; [29]", "value": 0}, {"measurement": "Kochia plant response rating (0-100)", "setting": "[8]; [28]", "value": 50}, {"measurement": "Kochia plant response rating (0 to 100 scale)", "setting": "[8]; [29]", "value": 0}, {"measurement": "Wheat plant response rating (0-100)", "setting": "[9]; [28]", "value": 70}, {"measurement": "Wheat plant response rating (0 to 100 scale)", "setting": "[9]; [29]", "value": 0}, {"measurement": "Pigweed, Palmer plant response rating (0-100)", "setting": "[10]; [28]", "value": 30}, {"measurement": "Pigweed, Palmer plant response rating (0 to 100 scale)", "setting": "[10]; [29]", "value": 0}, {"measurement": "Oat, Wild plant response rating (0-100)", "setting": "[11]; [28]", "value": 30}, {"measurement": "Oat, Wild plant response rating (0 to 100 scale)", "setting": "[11]; [29]", "value": 0}, {"measurement": "Foxtail, Green plant response rating (0-100)", "setting": "[12]; [28]", "value": 10}, {"measurement": "Foxtail, Green plant response rating (0 to 100 scale)", "setting": "[12]; [29]", "value": 0}, {"measurement": "Blackgrass plant response rating (0-100)", "setting": "[13]; [28]", "value": 60}, {"measurement": "Blackgrass plant response rating (0 to 100 scale)", "setting": "[13]; [29]", "value": 0}, {"measurement": "Horseweed plant response rating (0-100)", "setting": "[14]; [28]", "value": 50}, {"measurement": "Horseweed plant response rating (0 to 100 scale)", "setting": "[14]; [29]", "value": 0}, {"measurement": "Ryegrass, Italian plant response rating (0-100)", "setting": "[15]; [28]", "value": 30}, {"measurement": "Ryegrass, Italian plant response rating (0 to 100 scale)", "setting": "[15]; [29]", "value": 0}, {"measurement": "Soybean plant response rating (0-100)", "setting": "[16]; [28]", "value": 60}, {"measurement": "Soybean plant response rating (0 to 100 scale)", "setting": "[16]; [29]", "value": 0}, {"measurement": "Corn plant response rating", "setting": "[17]; 16 g ai/ha, 0 to 100 scale", "value": 0}, {"measurement": "Corn plant response rating (0-100)", "setting": "[17]; [30]", "value": 10}, {"measurement": "Barnyardgrass plant response rating", "setting": "[18]; 16 g ai/ha, 0 to 100 scale", "value": 0}, {"measurement": "Barnyardgrass plant response rating (0-100)", "setting": "[18]; [30]", "value": 60}, {"measurement": "Ragweed plant response rating", "setting": "[19]; 16 g ai/ha, 0 to 100 scale", "value": 0}, {"measurement": "Ragweed plant response rating (0-100)", "setting": "[19]; [30]", "value": 0}, {"measurement": "Kochia plant response rating", "setting": "[20]; 16 g ai/ha, 0 to 100 scale", "value": 0}, {"measurement": "Kochia plant response rating (0-100)", "setting": "[20]; [30]", "value": 90}, {"measurement": "Wheat plant response rating", "setting": "[21]; 16 g ai/ha, 0 to 100 scale", "value": 20}, {"measurement": "Wheat plant response rating (0-100)", "setting": "[21]; [30]", "value": 90}, {"measurement": "Pigweed, Palmer plant response rating", "setting": "[22]; 16 g ai/ha, 0 to 100 scale", "value": 20}, {"measurement": "Pigweed, Palmer plant response rating (0-100)", "setting": "[22]; [30]", "value": 70}, {"measurement": "Oat, Wild plant response rating", "setting": "[23]; 16 g ai/ha, 0 to 100 scale", "value": 0}, {"measurement": "Oat, Wild plant response rating (0-100)", "setting": "[23]; [30]", "value": 30}, {"measurement": "Foxtail, Green plant response rating", "setting": "[24]; 16 g ai/ha, 0 to 100 scale", "value": 0}, {"measurement": "Foxtail, Green plant response rating (0-100)", "setting": "[24]; [30]", "value": 30}, {"measurement": "Blackgrass plant response rating", "setting": "[25]; 16 g ai/ha, 0 to 100 scale", "value": 0}, {"measurement": "Blackgrass plant response rating (0-100)", "setting": "[25]; [30]", "value": 50}, {"measurement": "Ryegrass, Italian plant response rating", "setting": "[26]; 16 g ai/ha, 0 to 100 scale", "value": 30}, {"measurement": "Ryegrass, Italian plant response rating (0-100)", "setting": "[26]; [30]", "value": 60}, {"measurement": "Soybean plant response rating", "setting": "[27]; 16 g ai/ha, 0 to 100 scale", "value": 0}, {"measurement": "Soybean plant response rating (0-100)", "setting": "[27]; [30]", "value": 50}]}]}
